Measurements: patent US8039634B2, “Oxazole hydroxamic acid derivatives and use thereof” (SK Holdings Co., Ltd., priority 2005, dated 2011)
In brackets after ≈: the same amount, converted by molar mass.

Experiments:
Solubility = format: physicochemical
HeLa = test: In vitro toxicity / growth inhibition (CellTiter-Glo), HeLa; format: cell-based; conditions: Homo sapiens, 48 hr
Experimental: (§1) In order to determine in vitro toxicity of a compound in accordance with the present invention, 18 species of human cancer cell lines (HeLa, cervical cancer cell line; HCT116, SW480, SW620, RKO, colon cancer cell lines; H460, H1299, A549, lung cancer cell lines; MCF7, MDA-MB231, MDA-MB453, breast cancer cell lines; Jurkat, K562, THP1, Ramos, U937, blood cancer cell lines; PC3, DU145, prostate cancer cell lines) were used. Cell lines were cultured in RPMI 1640 culture medium containing penicillin/streptomycin (100 units/mL) and heat-inactivated 5% fetal bovine serum (FBS) under standard culture conditions ([…], 5% CO2, and 100% relative humidity). Thereafter, single cell suspension was obtained via trypsin treatment and pipetting. The suspension was diluted with the same medium such that a cell density is in a range of 8×10^3 to 1.5×10^4 cells/well, and was transferred to a 96-well microtiter plate. After culturing for 24 hours, cell cultures were treated with respective compounds of Examples at various concentrations. […] The above evaluation was carried out according to the methods given in a manufacture's manual. GI50 in Table 1 below refers to a concentration that compounds of Examples cause 50% growth inhibition of various cancer cells.

HDAC = test: Inhibition of HDAC activity (fluorometric, HeLa nuclear extract); format: biochemical, human; conditions: 30 min room temperature
Experimental: In order to determine inhibitory activity of a compound in accordance with the present invention on HDAC, evaluation was carried out using an aminocoumarin derivative of ω-acetylated lysine as a substrate for an enzyme. As an enzyme source, a nuclear extract obtained from human cervical cancer cell line HeLa cells was used. The above evaluation was carried out with modification of a method based on the details described in Weegener et al. (2003) Analytical Biochemistry, 321, 203-208. That is, […], […] of nuclear extract and a compound of Example 1 at different concentrations were added and maintained at room temperature for 30 min. Trypsin (10 mg/ml) and Trichostatin A (final concentration: […]) were added to the resulting mixture which was reacted at the same temperature for 20 min, thereby terminating the reaction. The enzyme activity-inhibitory concentration of the compound added was determined using a fluorometer. As a control compound, suberoylanilide hydroxamic acid (SAHA) was used. IC50 in Table 1 below refers to a concentration of the compound that leads to a 50% decrease in activity of HDAC.

Raw cell = test: Inhibition of LPS-induced NO increases; format: cell-based, Mouse; conditions: 5 μM compound; for NO: LPS, 18 hours, Griess Reagent; for activity at 5 µM: Mus musculus, 18 h, relative to LPS alone control
Experimental: As one of the methods to confirm anti-inflammatory responses, inhibition of increases in nitric oxide (NO) due to lipopolysaccharide (LPS) was carried out. Mouse cell line (Raw cell) was cultured in RPMI 1640 culture medium containing penicillin/streptomycin (100 units/mL) and heat-inactivated 5% fetal bovine serum (FBS) under standard culture conditions ([…], 5% CO2, 37° C., and 100% relative humidity). Test compounds were dissolved in dimethylsulfoxide (DMSO) and were used as a final concentration of 1 to 40 μM. Cells were proliferated to a cell density of 5×10^3 to 2×10^4 cells on a 24-well plate and were treated with the respective compounds (equal amounts of 5 μM) 1 hour prior to treatment with LPS ([…]). The thus-treated cells were cultured for 18 hours, and thereafter the amounts of NO thus produced were measured using Griess Reagent. Measurement was confirmed using an absorption spectrophotometer at 540 nm. The value was expressed as percentage (%) relative to a control in which LPS alone was treated.

HCT116 = test: In vitro toxicity / growth inhibition (CellTiter-Glo), HCT116; format: cell-based; conditions: Homo sapiens, HCT-116; HCT116, 48 hr
Experimental: as §1

MCF7 = test: In vitro toxicity / growth inhibition (CellTiter-Glo), MCF7; format: cell-based; conditions: Homo sapiens; MCF7, 48 hr
Experimental: as §1

H460 = test: In vitro toxicity / growth inhibition (CellTiter-Glo), H460; format: cell-based; conditions: Homo sapiens, NCI-H460; H460, 48 hr
Experimental: as §1

Structure (SMILES): COc1ccccc1-c1oc(CCCCCCC(=O)NO)nc1-c1ccccc1 [Example 2, 7-[5-(2-methoxy-phenyl)-4-phenyl-oxazol-2-yl]-heptanoic acid hydroxyamide]
- solubility (Solubility): 400 µg/mL (≈ 1010 µM)
- GI50 (HeLa): 9.33 µM
- IC50 (HDAC): 0.00661 µM
- NO (Raw cell): 77.9 μM/L
- activity at 5 µM (Raw cell): 97.8%
- GI50 (HCT116): 8.3 µM

Structure (SMILES): COc1cccc(-c2oc(CCCCCCC(=O)NO)nc2-c2ccccc2)c1 [Example 3, 7-[5-(3-methoxy-phenyl)-4-phenyl-oxazol-2-yl]-heptanoic acid hydroxyamide]
- solubility (Solubility): 200 µg/mL (≈ 507 µM)
- GI50 (HeLa): 16.9 µM
- IC50 (HDAC): 0.00158 µM
- GI50 (HCT116): 6.5 µM

Structure (SMILES): O=C(CCCCCCc1nc(-c2ccccc2)c(-c2ccccc2)o1)NO [Example 4, 7-(4,5-diphenyl-oxazol-2-yl)-heptanoic acid hydroxyamide]
- solubility (Solubility): 200 µg/mL (≈ 549 µM)
- GI50 (HeLa): 2.5 µM
- IC50 (HDAC): 0.002 µM
- GI50 (MCF7): 6.6 µM
- GI50 (HCT116): 3.5 µM

Structure (SMILES): O=C(CCCCCCc1nc(-c2ccccc2)c(-c2ccccc2F)o1)NO [Example 5, 7-[5-(2-fluoro-phenyl)-4-phenyl-oxazol-2-yl]-heptanoic acid hydroxyamide]
- solubility (Solubility): 300 µg/mL (≈ 784 µM)
- GI50 (HeLa): 3.6 µM
- GI50 (H460): 14.2 µM
- IC50 (HDAC): 0.00174 µM
- NO (Raw cell): 69.0 μM/L
- activity at 5 µM (Raw cell): 72.7%
- GI50 (HCT116): 10.7 µM

Structure (SMILES): O=C(CCCCCCc1nc(-c2ccccc2)c(-c2cccc(F)c2)o1)NO [Example 6, 7-[5-(3-fluoro-phenyl)-4-phenyl-oxazol-2-yl]-heptanoic acid hydroxyamide]
- solubility (Solubility): 400 µg/mL (≈ 1050 µM)
- GI50 (HeLa): 10.7 µM
- GI50 (H460): 15.8 µM
- IC50 (HDAC): 0.00148 µM
- GI50 (MCF7): 3.8 µM
- NO (Raw cell): 70.6 μM/L
- activity at 5 µM (Raw cell): 77.1%
- GI50 (HCT116): 9.5 µM

Structure (SMILES): Cc1ccc(-c2oc(CCCCCCC(=O)NO)nc2-c2ccccc2)cc1 [Example 7, 7-(4-phenyl-5-p-tolyl-oxazol-2-yl)-heptanoic acid hydroxyamide]
- solubility (Solubility): 200 µg/mL (≈ 528 µM)
- GI50 (HeLa): 2.4 µM
- GI50 (H460): 9.9 µM
- IC50 (HDAC): 0.002 µM
- GI50 (HCT116): 2.7 µM

Structure (SMILES): CCOc1ccc(-c2oc(CCCCCCC(=O)NO)nc2-c2ccccc2)cc1 [Example 8, 7-[5-(4-ethoxy-phenyl)-4-phenyl-oxazol-2-yl]-heptanoic acid hydroxyamide]
- solubility (Solubility): 200 µg/mL (≈ 490 µM)
- GI50 (HeLa): 1.5 µM
- GI50 (H460): 4.2 µM
- IC50 (HDAC): 0.0012 µM
- NO (Raw cell): 63.7 μM/L
- activity at 5 µM (Raw cell): 57.7%
- GI50 (HCT116): 1.2 µM

Structure (SMILES): O=C(CCCCCCc1nc(-c2ccccc2)c(-c2ccc(F)cc2)o1)NO [Example 9, 7-[5-(4-fluoro-phenyl)-4-phenyl-oxazol-2-yl]-heptanoic acid hydroxyamide]
- GI50 (HeLa): 14.2 µM
- GI50 (H460): 19.1 µM
- IC50 (HDAC): 0.00497 µM
- NO (Raw cell): 71.4 μM/L
- activity at 5 µM (Raw cell): 79.4%
- GI50 (HCT116): 5.9 µM

Structure (SMILES): COc1ccc(-c2nc(CCCCCCC(=O)NO)oc2-c2ccc(OC)cc2)cc1 [Example 10, 7-[4,5-bis-(4-methoxy-phenyl)-oxazol-2-yl]-heptanoic acid hydroxyamide]
- solubility (Solubility): 200 µg/mL (≈ 471 µM)
- GI50 (HeLa): 3 µM
- GI50 (H460): 9.2 µM
- IC50 (HDAC): 0.00047 µM
- GI50 (MCF7): 0.8 µM
- GI50 (HCT116): 2.4 µM

Structure (SMILES): COc1ccc(-c2oc(CCCCCCC(=O)NO)nc2-c2ccccc2OC)cc1 [Example 11, 7-[4-(2-methoxy-phenyl)-5-(4-methoxy-phenyl)-oxazol-2-yl]-heptanoic acid hydroxyamide]
- solubility (Solubility): 400 µg/mL (≈ 942 µM)
- GI50 (HeLa): 1.2 µM
- GI50 (H460): 10.2 µM
- IC50 (HDAC): 0.00724 µM
- NO (Raw cell): 65.0 μM/L
- activity at 5 µM (Raw cell): 61.3%
- GI50 (HCT116): 2.4 µM

Structure (SMILES): CN(C)c1ccc(-c2oc(CCCCCCC(=O)NO)nc2-c2ccccc2)cc1 [Example 12, 7-[5-(4-dimethylamino-phenyl)-4-phenyl-oxazol-2-yl]-heptanoic acid hydroxyamide]
- solubility (Solubility): 700 µg/mL (≈ 1720 µM)
- GI50 (HeLa): 14.1 µM
- GI50 (H460): 19.5 µM
- IC50 (HDAC): 0.00501 µM
- GI50 (MCF7): 6.9 µM
- NO (Raw cell): 72.9 μM/L
- activity at 5 µM (Raw cell): 83.7%
- GI50 (HCT116): 9.8 µM

Structure (SMILES): COc1ccc(-c2nc(CCCCCCC(=O)NO)oc2-c2cccnc2)cc1 [Example 13, 7-[4-(4-methoxy-phenyl)-5-pyridin-3-yl-oxazol-2-yl]-heptanoic acid hydroxyamide]
- solubility (Solubility): 900 µg/mL (≈ 2280 µM)
- GI50 (HeLa): 3.9 µM
- GI50 (H460): 4.4 µM
- IC50 (HDAC): 0.0145 µM
- GI50 (MCF7): 1 µM
- NO (Raw cell): 57.1 μM/L
- activity at 5 µM (Raw cell): 39.2%
- GI50 (HCT116): 3.9 µM

Structure (SMILES): CN(C)c1ccc(-c2nc(CCCCCCC(=O)NO)oc2-c2cccnc2)cc1 [Example 14, 7-[4-(4-dimethylamino-phenyl)-5-pyridin-3-yl-oxazol-2-yl]-heptanoic acid hydroxyamide]
- solubility (Solubility): 1000 µg/mL (≈ 2450 µM)
- GI50 (HeLa): 7.8 µM
- GI50 (H460): 23.5 µM
- IC50 (HDAC): 0.00295 µM
- GI50 (MCF7): 8.7 µM
- NO (Raw cell): 69.6 μM/L
- activity at 5 µM (Raw cell): 74.4%
- GI50 (HCT116): 8.7 µM

Structure (SMILES): O=C(CCCCCCc1nc(-c2ccc(F)cc2)c(-c2cccnc2)o1)NO [Example 15, 7-[4-(4-fluoro-phenyl)-5-pyridin-3-yl-oxazol-2-yl]-heptanoic acid hydroxyamide]
- solubility (Solubility): 2000 µg/mL (≈ 5220 µM)
- GI50 (HeLa): 30.1 µM
- GI50 (H460): 69 µM
- IC50 (HDAC): 0.0384 µM
- NO (Raw cell): 66.6 μM/L
- activity at 5 µM (Raw cell): 65.8%

Structure (SMILES): O=C(CCCCCCc1nc(-c2cccc(F)c2)c(-c2cccnc2)o1)NO [Example 16, 7-[4-(3-fluoro-phenyl)-5-pyridin-3-yl-oxazol-2-yl]-heptanoic acid hydroxyamide]
- solubility (Solubility): 1400 µg/mL (≈ 3650 µM)
- GI50 (HeLa): 20.7 µM
- GI50 (H460): 52.3 µM
- IC50 (HDAC): 0.0323 µM
- NO (Raw cell): 63.0 μM/L
- activity at 5 µM (Raw cell): 55.7%

Structure (SMILES): O=C(CCCCCCc1nc(-c2ccccc2)c(-c2ccncc2)o1)NO [Example 17, 7-(4-phenyl-5-pyridin-4-yl-oxazol-2-yl)-heptanoic acid hydroxyamide]
- solubility (Solubility): 900 µg/mL (≈ 2460 µM)
- GI50 (HeLa): 3.5 µM
- GI50 (H460): 7.3 µM
- IC50 (HDAC): 0.0195 µM
- GI50 (MCF7): 1.8 µM
- NO (Raw cell): 59.6 μM/L
- activity at 5 µM (Raw cell): 46.1%
- GI50 (HCT116): 5.4 µM

Structure (SMILES): COc1ccc(-c2oc(CCCCCCC(=O)NO)nc2-c2ccncc2)cc1 [Example 18, 7-[5-(4-methoxy-phenyl)-4-pyridin-4-yl-oxazol-2-yl)-heptanoic acid hydroxyamide]
- solubility (Solubility): 900 µg/mL (≈ 2280 µM)
- GI50 (HeLa): 9.1 µM
- GI50 (H460): 11.7 µM
- IC50 (HDAC): 0.014 µM
- NO (Raw cell): 68.6 μM/L
- activity at 5 µM (Raw cell): 71.6%
- GI50 (HCT116): 3.8 µM

Structure (SMILES): CCOc1ccc(-c2oc(CCCCCCC(=O)NO)nc2-c2ccncc2)cc1 [Example 19, 7-[5-(4-ethoxy-phenyl)-4-pyridin-4-yl-oxazol-2-yl]-heptanoic acid hydroxyamide]
- solubility (Solubility): 700 µg/mL (≈ 1710 µM)
- GI50 (HeLa): 2.9 µM
- GI50 (H460): 4.1 µM
- IC50 (HDAC): 0.00068 µM
- GI50 (MCF7): 1.1 µM
- GI50 (HCT116): 4 µM

Structure (SMILES): O=C(CCCCCCc1nc(-c2ccccc2)c(-c2ccc(O)cc2)o1)NO [Example 20, 7-[5-(4-hydroxy-phenyl)-4-phenyl-oxazol-2-yl]-heptanoic acid hydroxyamide]
- solubility (Solubility): 300 µg/mL (≈ 789 µM)
- GI50 (HeLa): 2.4 µM
- GI50 (H460): 5.4 µM
- IC50 (HDAC): 0.0017 µM
- NO (Raw cell): 55.9 μM/L
- activity at 5 µM (Raw cell): 35.9%
- GI50 (HCT116): 1.5 µM
